In patent US11412771B2, “Composition to improve athletic performance by supporting muscle protein synthesis and mental focus” (The Amino Company LLC, priority 2019, dated 2022):
Read-outs that look alike come from different tables or passages of the source. Each block holds one molecule with its values, some of them ahead of it.

Columns and labels:
[1] = test system: nitric oxide (NO) synthesis; test: In vivo kinetics of nitric oxide (NO) metabolism after citrulline ingestion (stable isotope tracer); set-up: species or system human; conditions: 3 grams; for NO synthesis rate after citrulline ingestion: after 3 hours; for De novo arginine synthesis after citrulline ingestion: over 3 hours
Procedure: FIGS. 6A-B depicts graphs showing plasma arginine concentration (FIG. 6A) and nitric oxide (NO) synthesis (FIG. 6B) in human subjects over 3 hours following citrulline ingestion (3 grams) wherein the subjects were either elderly (n=8, 77±9 years of age, 93±4 kg) or young individuals (n=8, 27±9 years of age, 70±5 kg).
EXAMPLE 5. A kinetic study with a stable isotope tracer method was performed to determine in vivo kinetics of nitric oxide (NO) metabolism in relation to citrulline ingestion in older adult humans (n=8, 77±9 years, 93±4 kg) and in young adult humans (n=8, 27±9 years, 70±5 kg). In the fasted state, NO synthesis (expressed per kg fat free mass) was ˜50% lower in older vs. young adults and was related to a decreased rate of appearance of the NO precursor arginine. Citrulline ingestion (3 grams) stimulated de novo arginine synthesis in both older (6.88±0.83 to 35.40±4.90 μmol·kg body wt^−1·h^−1) and, to a greater extent, in young adults (12.02±1.01 to 66.26±4.79 μmol·kg body wt^−1 h^−1) over 3 hours (FIG. 6A). NO synthesis rate increased correspondingly in older (0.17±0.01 to 2.12±0.36 μmol·kg body wt^−1·h^−1) and, to a greater extent, in young adults (0.36±0.04 to 3.57±0.47 μmol·kg body wt^−1·h^−1) after 3 hours (FIG. 6B). […] Because arginine can play a role in stimulating muscle protein synthesis as well as increasing blood flow via NO synthesis, the data strongly support citrulline ingestion for acute as well as long-term promotion of muscle function.

[2] = assay type: in vivo, human
Procedure: FIG. 2 depicts a graph showing leucine, lysine, and phenylalanine oxidation in human subjects at rest and during prolonged aerobic exercise (approximately 30% VO2 max for 105 minutes). Error bars represent standard error of mean (SE) assessed via ANOVA.
EXAMPLE 2. […] 1982, 52(2):458-66 and Wolfe et al., J APPL PHYSIOL RESPIR ENVIRON EXERC PHYSIOL. 1984, 56(1):221-9, both the disclosures of which are herein incorporated by reference in their entirety. Total leucine oxidation increased from 0.38±0.05 to 1.41±0.14 μmol·kg^−1·min^−1 during exercise due to increases in the oxidation of plasma leucine (150%) and intracellular leucine (600%) (FIG. 2). […] These findings provided a rational for providing extra leucine, as well as other branched chain amino acids, before exercise.

SMILES: NC(=O)NCCC[C@H](N)C(=O)O [Citrulline, citrulline]
- NO synthesis rate after citrulline ingestion ([1]; older adults, basal 0.17±0.01): 2.12±0.36 μmol·kg body wt^−1·h^−1
- De novo arginine synthesis after citrulline ingestion ([1]; older adults, basal 6.88±0.83): 35.40±4.90 μmol·kg body wt^−1·h^−1
- NO synthesis rate after citrulline ingestion ([1]; young adults, basal 0.36±0.04): 3.57±0.47 μmol·kg body wt^−1·h^−1
- De novo arginine synthesis after citrulline ingestion ([1]; young adults, basal 12.02±1.01): 66.26±4.79 μmol·kg body wt^−1 h^−1

SMILES: NCCCC[C@H](N)C(=O)O [lysine]
- Oxidation, change from rest to exercise ([2]; in vivo): did not change significantly

- Total leucine oxidation ([2]; human, in vivo): 0.38 ± 0.05 µmol/kg/min
- Increase in the oxidation of intracellular leucine ([2]; human, in vivo, 105 min): 600%
- Increase in the oxidation of plasma leucine ([2]; human, in vivo, 105 min): 150%
- Total leucine oxidation ([2]; human, in vivo, 105 min): 1.41 ± 0.14 µmol/kg/min
SMILES: CC(C)C[C@H](N)C(=O)O [leucine]
- Plasma leucine flux ([2]; not told): decreased slightly, but not significantly

- Oxidation, change from rest to exercise ([2]; in vivo): did not change significantly
SMILES: N[C@@H](Cc1ccccc1)C(=O)O [phenylalanine]
